Experimental data from the CheMixHub ionic liquid set.

Assay: xn = mol fraction of the nth substance listed

CCOP(=O)([O-])OCC.CC[N+]1(C)CCCC1 + CCO
viscosity [mPa·s], 100 kPa
Settings	293.15 K	298.15 K	303.15 K	308.15 K	313.15 K	318.15 K	323.15 K	328.15 K	333.15 K	338.15 K
x1 = 0.1003	3.85	3.4	2.99	2.66	2.35	2.07	1.83	1.67	1.5	1.44
x1 = 0.2001	8.78	7.84	6.91	6.2	5.58	5.06	4.67	4.27	3.94	3.62
x1 = 0.3004	18.4	15.67	13.37	11.53	9.97	8.78	7.86	7.13	6.55	6.04
x1 = 0.4001	39.8	29.8	24.8	20.6	17.7	15.24	13.14	11.6	10.25	9.19
x1 = 0.4997	66.9	52.7	42.3	34.5	28.5	23.8	20.3	17.4	14.99	13.17
x1 = 0.6002	116.3	88.7	68.7	54.9	43.9	35.2	29.3	24.6	20.7	17.9
x1 = 0.7001	180	133.7	102.4	78.8	62.3	49.5	39.7	32.8	27	22.6
x1 = 0.8011	265	193	143.7	109.7	83	66.1	51.9	42.1	34.3	28.3
x1 = 0.8985	334	237	173	130.1	98.4	75.6	59.5	47.3	37.8	30.9
x1 = 1	441	307	220	164	121.4	92.7	73	56.2	44.4	36.3

C[NH+](C)CCC=C1c2ccccc2CCc2ccccc21.[Cl-] + CCCC[n+]1ccn(C)c1.[Cl-] + O
electrical conductivity [S/m], 100 kPa
Settings	298 K	303 K	308 K	313 K	318 K
x2 = 0.00018, x1 = 0.0007057	0.498	0.501	0.511	0.509	0.527
x2 = 0.00018, x1 = 0.0007396	0.512	0.519	0.535	0.522	0.55
x2 = 0.00018, x1 = 0.000773	0.524	0.533	0.538	0.536	0.564
x2 = 0.00018, x1 = 0.0008057	0.543	0.55	0.551	0.561	0.581
x2 = 0.00018, x1 = 0.0008382	0.56	0.564	0.566	0.57	0.595
x2 = 0.00018, x1 = 0.0008701	0.569	0.578	0.58	0.587	0.613
x2 = 0.00018, x1 = 0.0009016	0.579	0.589	0.597	0.602	0.629
x2 = 0.00018, x1 = 0.0009322	0.591	–	0.611	0.62	–
x2 = 0.0001801, x1 = 8.875e-05	0.189	0.186	0.193	0.19	0.188
x2 = 0.0001801, x1 = 0.0001104	0.201	0.198	0.203	0.202	0.202
x2 = 0.0001801, x1 = 0.0001321	0.215	0.209	0.216	0.212	0.21
x2 = 0.0001801, x1 = 0.0001534	0.227	0.223	0.228	0.224	0.224
x2 = 0.0001801, x1 = 0.0001747	0.24	0.235	0.239	0.238	0.235
x2 = 0.0001801, x1 = 0.0001956	0.251	0.248	0.247	0.249	0.249
x2 = 0.0001801, x1 = 0.0002165	0.272	0.27	0.274	0.259	0.26
x2 = 0.0001801, x1 = 0.0002578	0.293	0.288	0.293	0.277	0.285
x2 = 0.0001801, x1 = 0.0002984	0.313	0.306	0.315	0.301	0.31
x2 = 0.0001801, x1 = 0.0003383	0.328	0.328	0.335	0.321	0.332
x2 = 0.0001801, x1 = 0.0003776	0.348	0.345	0.353	0.34	0.351
x2 = 0.0001801, x1 = 0.0004164	0.365	0.368	0.37	0.357	0.374
x2 = 0.0001801, x1 = 0.0004544	0.385	0.383	0.388	0.381	0.392
x2 = 0.0001801, x1 = 0.0004919	0.406	0.401	0.407	0.397	0.413
x2 = 0.0001801, x1 = 0.0005289	0.42	0.416	0.427	0.42	0.431
x2 = 0.0001801, x1 = 0.0005653	0.437	0.435	0.44	0.433	0.455
x2 = 0.0001801, x1 = 0.0006012	0.451	0.452	0.46	0.457	0.471
x2 = 0.0001801, x1 = 0.0006365	0.469	0.469	0.476	0.472	0.493
x2 = 0.0001801, x1 = 0.0006715	0.485	0.485	0.496	0.491	0.51
x2 = 0.0001802, x1 = 2.245e-05	0.15	–	0.147	0.156	0.152
x2 = 0.0001802, x1 = 4.474e-05	0.165	0.159	0.162	0.167	0.163
x2 = 0.0001802, x1 = 6.683e-05	0.177	0.174	0.182	0.179	0.176

CCCCC[n+]1ccn(C)c1.C[C@H](N)C(=O)[O-] + O
viscosity [mPa·s], 100.3 kPa
Settings	288.15 K	293.15 K	298.15 K	303.15 K	308.15 K	313.15 K	318.15 K	323.15 K	328.15 K
x1 = 0.0003008	1.156	1.015	0.9	0.81	0.725	0.661	0.604	0.554	0.511
x1 = 0.0003999	1.162	1.022	0.907	0.813	0.732	0.664	0.606	0.556	0.513
x1 = 0.0005025	1.167	1.027	0.911	0.817	0.735	0.666	0.608	0.559	0.515
x1 = 0.001012	1.203	1.057	0.937	0.838	0.755	0.684	0.626	0.573	0.529
x1 = 0.00302	1.361	1.197	1.057	0.939	0.841	0.759	0.688	0.629	–
x1 = 0.005081	1.512	1.325	1.163	1.027	0.916	0.827	0.749	0.685	–
x1 = 0.006922	1.657	1.445	1.272	1.118	0.997	0.893	0.805	0.736	–
x1 = 0.009062	1.82	1.574	1.367	1.208	1.07	0.958	0.867	0.781	–
x1 = 0.01107	1.956	1.696	1.476	1.3	1.146	1.026	0.928	0.831	–
x1 = 0.01292	2.098	1.817	1.578	1.378	1.223	1.087	0.985	0.887	–
x1 = 0.0148	2.243	1.938	1.674	1.467	1.291	1.155	1.035	0.931	–
x1 = 0.01797	2.456	2.105	1.823	1.596	1.392	1.252	1.114	0.999	–

CCCCCCC[n+]1ccn(C)c1.O=S(=O)([N-]S(=O)(=O)C(F)(F)F)C(F)(F)F + O
100 kPa, x2 = 0.1971
Settings	viscosity [mPa·s]
308.15 K	34.86
318.15 K	24.33
323.15 K	20.69
358.15 K	8.4

CCCCCCCC[N+](C)(CCCCCCCC)CCCCCCCC.[Br-] + CCCCCCCCCC(=O)O
100 kPa, x1 = 0.3333
Settings	viscosity [mPa·s]
293 K	810
298 K	570
303 K	410
308 K	310
333 K	84

COCCOCCOC + CCCC[n+]1ccn(C)c1.O=S(=O)([N-]S(=O)(=O)C(F)(F)F)C(F)(F)F
Settings	electrical conductivity [S/m]
294.5 K, 100 kPa, x2 = 0.03433	0.44

Cn1cc[n+](CCO)c1.O=S(=O)([O-])C(F)(F)C(F)(F)C(F)(F)C(F)(F)F + O
101 kPa
Settings	electrical conductivity [S/m]	viscosity [mPa·s]
298.15 K, x1 = 0.02322	4.64	2.48
298.15 K, x1 = 0.02741	4.83	2.81
298.15 K, x1 = 0.05114	–	5.32
298.15 K, x1 = 0.05966	–	6.3
298.15 K, x1 = 0.09831	4.54	11.5
298.15 K, x1 = 0.1816	2.58	27.4
298.15 K, x1 = 0.6778	0.116	256
308.15 K, x1 = 0.04384	–	3.39
308.15 K, x1 = 0.0644	–	5.13
308.15 K, x1 = 0.06999	–	5.73
308.15 K, x1 = 0.07565	–	6.11
308.15 K, x1 = 0.08994	–	7.61
308.15 K, x1 = 0.1303	–	11.95
308.15 K, x1 = 0.1442	–	13.84
308.15 K, x1 = 0.2068	–	21.6
308.15 K, x1 = 0.3955	–	53.9
318.15 K, x1 = 0.02322	–	1.601
318.15 K, x1 = 0.03214	–	2.096
318.15 K, x1 = 0.04384	–	2.67
318.15 K, x1 = 0.05966	–	3.7
318.15 K, x1 = 0.09831	–	6.23
318.15 K, x1 = 0.1303	–	8.76
318.15 K, x1 = 0.2329	–	17.91

Cn1cc[n+](C)c1.[Cl-] + O
viscosity [mPa·s], 100 kPa
Settings	x1 = 8.631e-05	x1 = 0.0002029	x1 = 0.0003509	x1 = 0.0005369	x1 = 0.0007226	x1 = 0.0008926	x1 = 0.001063	x1 = 0.001349	x1 = 0.001718
278.15 K	1.521	1.526	1.529	1.533	1.536	1.538	1.544	1.548	1.553
283.15 K	1.307	1.311	1.313	1.317	1.32	1.323	1.327	1.33	1.334
288.15 K	1.141	1.143	1.145	1.148	1.15	1.152	1.155	1.159	1.164
293.15 K	1.006	1.007	1.009	1.012	1.014	1.016	1.018	1.022	1.026
298.15 K	0.893	0.895	0.897	0.899	0.901	0.903	0.906	0.908	0.912
303.15 K	0.802	0.803	0.804	0.805	0.806	0.808	0.811	0.813	0.817
308.15 K	0.721	0.723	0.724	0.727	0.728	0.73	0.732	0.734	0.737
313.15 K	0.654	0.655	0.657	0.659	0.66	0.662	0.664	0.666	0.669
